According to ChEMBL document CHEMBL4190387 (Bioorg Med Chem Lett, 2018):

Columns and labels:
[1] = in vitro; conditions: human, cryopreserved hepatocytes
[2] = physchem; conditions: buffer, pH 6.5

| hepatocyte CLint at 1.5 h, 1 µM [1] [µL/min/1e6 cells] | chromatographic logD [2] | SMILES |
| --- | --- | --- |
| 72 | 3.5 | CC(C)(C)c1cc(-c2cc(-c3ccc(C(=O)O)cc3)ccc2OCCO)ccc1N1CCCC1 [TRIFAROTENE] |
| 11 | 1.9 | CCN(CC)c1ccc(-c2cc(-c3ccc(C(=O)O)cc3)ccc2OCCCO)cc1 |
| 22 | 2.8 | O=C(O)c1ccc(-c2ccc(OCCCCO)c(-c3ccc(N4CCCC4)c(C(F)(F)F)c3)c2)cc1 |

| SMILES | hepatocyte CLint at 1.5 h, 1 µM [1] [µL/min/1e6 cells] | chromatographic logD [2] |
| --- | --- | --- |
| CCN(CC)c1ccc(-c2cc(-c3ccc(C(=O)O)cc3)ccc2OCCCCO)cc1C(C)(C)C | 33 | 4.3 |
